Reference: the NIST ThermoML archive (doi:10.1016/j.jct.2014.03.001)
Numbers after ± are expanded uncertainties.

Test: mn = molality of the nth substance listed, in mol/kg
Details: 84.51 kPa, Liquid; for speed of sound: Frequency=3 MHz, Sing-around technique in a fixed-path interferometer; for mass density: Vibrating tube method

CCCCCCCCCCCCn1cc[n+](C)c1.[Br-] [1-dodecyl-3-methylimidazolium bromide] + O
Details	mass density [kg/m3]	speed of sound [m/s]
288.15 K, m1 = 0.00233	999.188 ± 0.11	1467.3 ± 1.2
288.15 K, m1 = 0.00278	999.209 ± 0.11	1467.4 ± 1.2
288.15 K, m1 = 0.00301	999.216 ± 0.11	1467.5 ± 1.2
288.15 K, m1 = 0.00467	999.282 ± 0.11	1467.7 ± 1.2
288.15 K, m1 = 0.00501	999.296 ± 0.11	1467.9 ± 1.2
288.15 K, m1 = 0.00665	999.36 ± 0.11	1468.4 ± 1.2
288.15 K, m1 = 0.00889	999.451 ± 0.11	1469 ± 1.2
288.15 K, m1 = 0.00906	999.458 ± 0.11	1469 ± 1.2
288.15 K, m1 = 0.01229	999.569 ± 0.11	1469.4 ± 1.2
288.15 K, m1 = 0.01511	999.659 ± 0.11	1469.4 ± 1.2
288.15 K, m1 = 0.01804	999.736 ± 0.11	1469.5 ± 1.2
288.15 K, m1 = 0.02431	999.927 ± 0.11	1469.6 ± 1.2
288.15 K, m1 = 0.03042	1000.12 ± 0.11	1469.7 ± 1.2
288.15 K, m1 = 0.04595	1000.6 ± 0.11	1470 ± 1.2
288.15 K, m1 = 0.06124	1001.06 ± 0.11	1470.2 ± 1.2
288.15 K, m1 = 0.07667	1001.51 ± 0.11	1470.5 ± 1.2
288.15 K, m1 = 0.098	1002.15 ± 0.11	1471 ± 1.2
288.15 K, m1 = 0.1095	1002.5 ± 0.11	1471.1 ± 1.2
293.15 K, m1 = 0.00233	998.288 ± 0.11	1483.3 ± 1.2
293.15 K, m1 = 0.00278	998.306 ± 0.11	1483.3 ± 1.2
293.15 K, m1 = 0.00301	998.314 ± 0.11	1483.4 ± 1.2
293.15 K, m1 = 0.00467	998.376 ± 0.11	1483.7 ± 1.2
293.15 K, m1 = 0.00501	998.39 ± 0.11	1483.9 ± 1.2
293.15 K, m1 = 0.00665	998.451 ± 0.11	1484.2 ± 1.2
293.15 K, m1 = 0.00889	998.538 ± 0.12	1484.8 ± 1.3
293.15 K, m1 = 0.00906	998.544 ± 0.12	1484.8 ± 1.3
293.15 K, m1 = 0.01229	998.652 ± 0.11	1485.1 ± 1.2
293.15 K, m1 = 0.01511	998.738 ± 0.11	1485.1 ± 1.2
293.15 K, m1 = 0.01804	998.815 ± 0.11	1485.2 ± 1.2
293.15 K, m1 = 0.02431	998.999 ± 0.11	1485.2 ± 1.2
293.15 K, m1 = 0.03042	999.185 ± 0.11	1485.3 ± 1.2
293.15 K, m1 = 0.04595	999.641 ± 0.11	1485.4 ± 1.2
293.15 K, m1 = 0.06124	1000.09 ± 0.11	1485.5 ± 1.2
293.15 K, m1 = 0.07667	1000.53 ± 0.11	1485.7 ± 1.2
293.15 K, m1 = 0.098	1001.14 ± 0.11	1486 ± 1.2
293.15 K, m1 = 0.1095	1001.48 ± 0.11	1486.1 ± 1.2
298.15 K, m1 = 0.00233	997.123 ± 0.11	1497.4 ± 1.2
298.15 K, m1 = 0.00278	997.142 ± 0.11	1497.4 ± 1.2
298.15 K, m1 = 0.00301	997.148 ± 0.11	1497.6 ± 1.2
298.15 K, m1 = 0.00467	997.208 ± 0.11	1497.8 ± 1.2
298.15 K, m1 = 0.00501	997.221 ± 0.11	1497.9 ± 1.2
298.15 K, m1 = 0.00665	997.28 ± 0.11	1498.2 ± 1.2
298.15 K, m1 = 0.00889	997.362 ± 0.12	1498.8 ± 1.3
298.15 K, m1 = 0.00906	997.366 ± 0.12	1498.8 ± 1.3
298.15 K, m1 = 0.01229	997.472 ± 0.11	1499.1 ± 1.2
298.15 K, m1 = 0.01511	997.555 ± 0.11	1499.1 ± 1.2
298.15 K, m1 = 0.01804	997.629 ± 0.11	1499.1 ± 1.2
298.15 K, m1 = 0.02431	997.806 ± 0.11	1499.1 ± 1.2
298.15 K, m1 = 0.03042	997.989 ± 0.11	1499.1 ± 1.2
298.15 K, m1 = 0.04595	998.429 ± 0.11	1499.1 ± 1.2
298.15 K, m1 = 0.06124	998.861 ± 0.11	1499 ± 1.2
298.15 K, m1 = 0.07667	999.288 ± 0.11	1499.1 ± 1.2
298.15 K, m1 = 0.098	999.878 ± 0.11	1499.2 ± 1.2
298.15 K, m1 = 0.1095	1000.21 ± 0.11	1499.2 ± 1.2
303.15 K, m1 = 0.00233	995.721 ± 0.11	1509.7 ± 1.2
303.15 K, m1 = 0.00278	995.74 ± 0.11	1509.7 ± 1.2
303.15 K, m1 = 0.00301	995.746 ± 0.11	1509.8 ± 1.2
303.15 K, m1 = 0.00467	995.801 ± 0.11	1510 ± 1.2
303.15 K, m1 = 0.00501	995.814 ± 0.11	1510 ± 1.2
303.15 K, m1 = 0.00665	995.873 ± 0.11	1510.4 ± 1.2
303.15 K, m1 = 0.00889	995.95 ± 0.12	1511 ± 1.3
303.15 K, m1 = 0.00906	995.955 ± 0.11	1511 ± 1.3
303.15 K, m1 = 0.01229	996.058 ± 0.11	1511.2 ± 1.2
303.15 K, m1 = 0.01511	996.137 ± 0.11	1511.2 ± 1.2
303.15 K, m1 = 0.01804	996.207 ± 0.11	1511.2 ± 1.2
303.15 K, m1 = 0.02431	996.381 ± 0.11	1511.1 ± 1.2
303.15 K, m1 = 0.03042	996.556 ± 0.11	1511 ± 1.2
303.15 K, m1 = 0.04595	996.985 ± 0.11	1510.9 ± 1.2
303.15 K, m1 = 0.06124	997.402 ± 0.11	1510.8 ± 1.2
303.15 K, m1 = 0.07667	997.814 ± 0.11	1510.7 ± 1.2
303.15 K, m1 = 0.098	998.386 ± 0.11	1510.5 ± 1.2
303.15 K, m1 = 0.1095	998.705 ± 0.11	1510.5 ± 1.2
308.15 K, m1 = 0.00233	994.1 ± 0.11	1520.3 ± 1.2
308.15 K, m1 = 0.00278	994.121 ± 0.11	1520.2 ± 1.2
308.15 K, m1 = 0.00301	994.125 ± 0.11	1520.4 ± 1.2
308.15 K, m1 = 0.00467	994.18 ± 0.11	1520.6 ± 1.2
308.15 K, m1 = 0.00501	994.193 ± 0.11	1520.6 ± 1.2
308.15 K, m1 = 0.00665	994.246 ± 0.11	1520.9 ± 1.2
308.15 K, m1 = 0.00889	994.32 ± 0.12	1521.4 ± 1.3
308.15 K, m1 = 0.00906	994.325 ± 0.11	1521.4 ± 1.3
308.15 K, m1 = 0.01229	994.423 ± 0.11	1521.7 ± 1.2
308.15 K, m1 = 0.01511	994.502 ± 0.11	1521.6 ± 1.2
308.15 K, m1 = 0.01804	994.571 ± 0.11	1521.6 ± 1.2
308.15 K, m1 = 0.02431	994.739 ± 0.11	1521.5 ± 1.2
308.15 K, m1 = 0.03042	994.91 ± 0.11	1521.4 ± 1.2
308.15 K, m1 = 0.04595	995.323 ± 0.11	1521.1 ± 1.2
308.15 K, m1 = 0.06124	995.729 ± 0.11	1520.8 ± 1.2
308.15 K, m1 = 0.07667	996.129 ± 0.11	1520.7 ± 1.2
308.15 K, m1 = 0.098	996.685 ± 0.11	1520.3 ± 1.2
308.15 K, m1 = 0.1095	996.993 ± 0.11	1520.1 ± 1.2
313.15 K, m1 = 0.00233	992.28 ± 0.11	1529.3 ± 1.2
313.15 K, m1 = 0.00278	992.299 ± 0.11	1529.3 ± 1.2
313.15 K, m1 = 0.00301	992.305 ± 0.11	1529.4 ± 1.2
313.15 K, m1 = 0.00467	992.357 ± 0.11	1529.6 ± 1.2
313.15 K, m1 = 0.00501	992.368 ± 0.11	1529.6 ± 1.2
313.15 K, m1 = 0.00665	992.422 ± 0.11	1529.8 ± 1.2
313.15 K, m1 = 0.00889	992.489 ± 0.11	1530.3 ± 1.2
313.15 K, m1 = 0.00906	992.495 ± 0.11	1530.3 ± 1.2
313.15 K, m1 = 0.01229	992.591 ± 0.11	1530.6 ± 1.2
313.15 K, m1 = 0.01511	992.671 ± 0.11	1530.5 ± 1.2
313.15 K, m1 = 0.01804	992.736 ± 0.11	1530.5 ± 1.2
313.15 K, m1 = 0.02431	992.896 ± 0.11	1530.3 ± 1.2
313.15 K, m1 = 0.03042	993.064 ± 0.11	1530.1 ± 1.2
313.15 K, m1 = 0.04595	993.467 ± 0.11	1529.7 ± 1.2
313.15 K, m1 = 0.06124	993.86 ± 0.11	1529.3 ± 1.2
313.15 K, m1 = 0.07667	994.248 ± 0.11	1529 ± 1.2
313.15 K, m1 = 0.098	994.79 ± 0.11	1528.5 ± 1.2
313.15 K, m1 = 0.1095	995.087 ± 0.11	1528.2 ± 1.2
